Earlier results on two compounds are cited in article PMC2483489 (Acta Crystallographica Section D: Biological Crystallography, 2006).

One data set relates to c-Kit. The following applies: ref Mol et al., 2004.
Another data set deals with KDR. The conditions noted are these: statement in words, no reference given.
For another data set, the system named is Irk. The following applies: statement in words, no reference given.
In another data set the test system is Flt-3. The following applies: statement in words, no reference given.
For data set [1], the system named is resistance mutants isolated from relapsed imatinib patients. The following applies: ref Weisberg et al., 2006, Kantarjian et al.

On to `Cc1ccc(NC(=O)c2ccc(CN3CCN(C)CC3)cc2)cc1Nc1nccc(-c2cccnc2)n1` [Imatinib, imatinib], for which the “Binding to c-Kit” value in the data set on c-Kit is reported as “does bind”. Moreover, the “Binding to KDR” value in the data set on KDR is listed as “does not bind”. The “Binding to Irk” value in the data set with Irk is on record as “does not bind”. Moreover, the “Binding to Flt-3” value in the data set on Flt-3 is listed as “does not bind”.

On to `Cc1cn(-c2cc(NC(=O)c3ccc(C)c(Nc4nccc(-c5cccnc5)n4)c3)cc(C(F)(F)F)c2)cn1` [NVP-AMN107, nilotinib], for which, in data set [1], the “Activity against imatinib-resistance mutants” value was “active against all but one of the resistance mutants”.
